Measured values from patent US20110306665A1, “COSMETIC PREPARATION, METHOD FOR PRODUCING SAME, COMPOSITION FOR COSMETIC PREPARATIONS, COSMETIC PREPARATION CONTAINING THE COMPOSITION FOR COSMETIC PREPARATIONS AND METHOD FOR PRODUCING SAME, AND CLEANSER FOR INDUSTRIAL USE” (The Nisshin OilliO Group, Ltd., priority 2009, published 2011).

Legend:
[1] = Low irritation properties: 24 hours airtight application with Finn Chamber (panel); assay type: in vivo, human
Description: Moreover, the low irritation properties of the respective cosmetic preparation compositions as an ink remover ingredient were evaluated in the following manner. The insides of the arms of seven panelists were washed with soap and water, and in addition, the washed surfaces were wiped with ethanol and naturally dried. Next, each of the thus washed surfaces was evenly divided into seven equal areas, to which 0.01 g of the respective cosmetic preparation compositions of Examples 13 and 13A to 13D, and Comparative Examples 8 and 9, was applied airtightly by using Finn Chamber (a product of Epitest Ltd Oy). After 24 hours, the Finn Chamber and the cosmetic preparation compositions were taken off. After 1 hour, the condition of the skin was observed. The low irritation properties of the respective cosmetic preparation compositions as an ink remover ingredient were evaluated in accordance with the following criteria. <Evaluation Criteria of Low Irritation Properties> Good: No change was found in the skin of the airtightly applied part. Moderate: A slight rash was found in the skin of the airtightly applied part.

[2] = Cleansing properties: removal of ink of an oil paint pen from the skin (panel); assay type: in vivo, human; conditions: black oil paint pen line on inside of arm, rubbed thirty times at about 200 g; seven panelists
Description: In Example 13, the cleansing properties and the low irritation properties of the PDO-C8/C10 diester obtained from Synthesis Example 2 as a cosmetic preparation composition for a cosmetic preparation to be used for the purpose of removing an ink of an oil paint pen (ink remover ingredient) from the skin, were evaluated. The insides of the arms of seven panelists were washed with soap and water, and in addition, the washed surfaces were wiped with ethanol and naturally dried. Thereafter, using a black oil paint pen (Product Name: […] product of Zebra Co., Ltd.), a line was painted respectively on the washed surfaces of the insides of their arms. Next, the painted line was evenly divided into seven equal areas. […] From the proportion of the line painted with the oil paint pen which had been able to be removed by this removal operation, the cleansing properties of the respective cosmetic preparation compositions as an ink remover ingredient were evaluated in accordance with the following criteria. The results of their averages are shown in Table 14. <Evaluation Criteria of Cleansing Properties> Excellent: High cleansing properties, meaning that a proportion of 75 to 100% in the line painted with the oil paint pen was able to be removed. Good: Relatively high cleansing properties, meaning that a proportion of 50 to 75% in the line painted with the oil paint pen was able to be removed. Moderate: Some cleansing properties, meaning that only a proportion of 25 to 50% in the line painted with the oil paint pen was able to be removed. Poor: Weak cleansing properties, meaning that only a proportion of 0 to 25% in the line painted with the oil paint pen was able to be removed.

[3] = Cleansing properties of industrial use cleansers: oil paint pen ink on coated steel panel; conditions: industrial use cleanser; black oil paint pen line on coated steel panel, rubbed thirty times at about 200 g
Description: The cleansing properties of the respective industrial use cleansers as an agent to remove an oil soluble colorant from a coated steel panel were evaluated in the following manner.
First, an electro-galvanized steel panel was coated with commercially available automotive paints, namely, a primer surfacer (Product Name: Primer White (a product of Musashi Holt Co., Ltd.)), a white automotive paint (Product Name: Antirust Paint (Color No. 041) (a product of Musashi Holt Co., Ltd.)), and a clear paint (Product Name: Topcoat Clear (a product of Musashi Holt Co., Ltd.)), by spraying according to the usage instruction of each product, and dried at 25° C. for 24 hours. By so doing, a coated steel panel for the test was obtained.
Next, using a black oil paint pen (Product Name: Mckee Care, a product of Zebra Co., Ltd.), a line was painted on the surface of the coated steel panel, and dried at 25° C. for 24 hours.
Subsequently, the painted line was evenly divided into seven equal areas. Each area was rubbed with an absorbent cotton that had been impregnated with, but to a degree which would not allow a leakage of, the industrial use cleanser of Examples 14, 14A, and 14B, or the oil agent of Comparative Examples 10, 11, 11A, and 11B, while loading a pressure of about 200 g in a reciprocating manner thirty times. From the proportion of the ink of the line painted with the oil paint pen which had been able to be removed by this removal operation, the cleansing properties of the respective industrial use cleansers of Examples 14, 14A, and 14B, or the respective oil agents of Comparative Examples 10, 11, 11A, and 11B, as the agent to remove the oil soluble colorant, were evaluated by eye in accordance with the following criteria.
<Evaluation Criteria of Cleansing Properties>
Excellent: High cleansing properties, meaning that a proportion of 75 to 100% in the line painted with the oil paint pen on the coated steel panel was able to be removed.
Good: Relatively high cleansing properties, meaning that a proportion of 50 to 75% in the line painted with the oil paint pen on the coated steel panel was able to be removed.
Moderate: Some cleansing properties, meaning that only a proportion of 25 to 50% in the line painted with the oil paint pen on the coated steel panel was able to be removed.
Poor: Weak cleansing properties, meaning that only a proportion of 0 to 25% in the line painted with the oil paint pen on the coated steel panel was able to be removed.
The cleansing properties and the low corrosion properties of the respective industrial use cleansers as an agent to remove an oil soluble colorant for a coated steel panel were evaluated in the same manner as those of the industrial use cleanser in Example 14. […]

[4] = Viscosity by stress-controlled rheometer at 20° C.; assay type: physicochemical
Description: (§1) Next, the viscosity and the friction coefficient of the cosmetic preparation compositions of Example 12 and Comparative Examples 4 to 7 and 4A to 4C were measured.
The viscosity was measured by using a stress-controlled rheometer (Product No. RheoStress RS1, with a C60/2 Ti sensor, a product of Haake Company) at 20° C.

[5] = Moisturizing properties of cosmetic preparation compositions (massage oil, panel); assay type: in vivo, human; parameters: key: Good: Very soft and moistened touch was felt.; Moderate: Soft and moistened touch was felt.; Poor: No moistened touch was felt; conditions: neat cosmetic preparation composition (massage oil); 0.05 g, rubbed twenty times, wiped; seven panelists
Description: In Example 12, the PDO diisostearate obtained from Synthesis Example 1 was used as a cosmetic preparation composition (moisturizing ingredient) for a moisturizing cosmetic preparation (massage oil), and the moisturizing properties and the feeling of use thereof were evaluated.
The insides of the arms of seven panelists were washed with soap and water, and in addition, the washed surfaces were wiped with ethanol and naturally dried. Thereafter, each of the thus washed surfaces was evenly divided into eight equal areas, to which 0.05 g of the respective cosmetic preparation compositions of Example 12, and Comparative Examples 4 to 7 and 4A to 4C, was applied and massage was done by gently rubbing with a finger twenty times. Thereafter, the area was wiped with a dry cloth. On completion of this wiping, the moisturizing properties and the feeling of use of the respective cosmetic preparation compositions were evaluated in accordance with the same criteria as those of the moisturizing gels of Examples 6 to 8 mentioned above.

[6] = Friction coefficient on artificial leather (friction tester); assay type: physicochemical; conditions: 5 μL on artificial leather, pressure of 100 g
Description: as §1
The friction coefficient was measured by such a way that: 5 μL of each cosmetic preparation composition was applied to the surface of an artificial leather (Product Name: Supplale, a product of Idemitsu Technofine Co., Ltd.), and the applied surface was measured for the friction coefficient and the change in the value of the friction coefficient, by using a friction tester (Type: TL201Ts, a product of Trinity-Lab Co., Ltd.) with a pressure of 100 g.

[7] = Oxidative stability by conductometric determination method (CDM, Rancimat); assay type: physicochemical; conditions: 3 g, 120° C., air flow 8 L/h
Description: Furthermore, the oxidative stability was compared between the cosmetic preparation compositions of Example 12 and Comparative Example 4. Specifically speaking, these cosmetic preparation compositions were evaluated for the oxidative stability by a conductometric determination method (CDM method). […] A greater increase in the conductivity per unit time means a lower oxidative stability of the cosmetic preparation composition. Conversely, a smaller increase in the conductivity per unit time means a higher oxidative stability of the cosmetic preparation composition. The conductivity was measured by using a rancimat instrument (Type: Rancimat 743, a product of Metrohm-Sibata Ltd.) in a condition where 3 g of the sample was examined under heating at 120° C. with an air flow rate of 8 L/h.

[8] = 0.01 g airtight in Finn Chamber 24 hours, skin observed 1 hour after removal, seven panelists

Row | Viscosity (mPa · s) (20° C.) [4] | Changed value of friction coefficient [6] | Friction coefficient [6] | Compound | Low irritation properties [1, 8] | Cleansing properties [2] | Cleansing properties [3] | Moisturizing properties [5] | other results
1 | – | – | – | CC(C)CCCCCCOC(=O)CCCCCC(C)C [Comparative Example 8, isononyl isononanoate, reference compound] | Poor | Good (Relatively high cleansing properties, meaning that a proportion of 50 to 75% in the line painted with the oil paint pen was able to be removed.) | – | – | Condition of the skin of the airtightly applied part ([1]; 0.01 g airtight in Finn Chamber 24 hours, skin observed 1 hour after removal): a notable rash was found
2 | – | – | – | PDO-C8/C10=50:50 diester [Example 13B] | Good | Good (Relatively high cleansing properties, meaning that a proportion of 50 to 75% in the line painted with the oil paint pen was able to be removed.) | Good (Relatively high cleansing properties, meaning that a proportion of 50 to 75% in the line painted with the oil paint pen on the coated steel panel was able to be removed.) | – | –
3 | – | – | – | CCCCCCCC(=O)OCCCOC(=O)CCCCCCC [Example 13A, PDO-di-n-Octanoic Acid Ester] | Moderate | Excellent (High cleansing properties, meaning that a proportion of 75 to 100% in the line painted with the oil paint pen was able to be removed.) | Excellent (High cleansing properties, meaning that a proportion of 75 to 100% in the line painted with the oil paint pen on the coated steel panel was able to be removed.) | – | –
4 | 1003 mPa · s | 0.0080 | 0.170 | CC(CCC(C(=O)OCCCOC(=O)C(CCC(C)CC(C)(C)C)C(C)CC(C)(C)C)C(C)CC(C)(C)C)CC(C)(C)C (centres unmarked) [Comparative Example 4B] | – | – | – | Good | –
5 | – | – | – | CCCCCCCCCC(=O)OCCCOC(=O)CCCCCCCCC [Example 13D, PDO-di-n-decanoic acid ester] | – | Poor (Weak cleansing properties, meaning that only a proportion of 0 to 25% in the line painted with the oil paint pen was able to be removed.) | Poor (Weak cleansing properties, meaning that only a proportion of 0 to 25% in the line painted with the oil paint pen on the coated steel panel was able to be removed.) | – | Low irritation properties ([1]; in vivo): Good
6 | 57.5 mPa · s | 0.0056 | 0.147 | PDO-Garbett isostearic acid diester [Comparative Example 4C] | – | – | – | Poor | –
7 | – | – | – | CCO [Comparative Example 10, ethanol, reference compound] | – | – | Excellent (High cleansing properties, meaning that a proportion of 75 to 100% in the line painted with the oil paint pen on the coated steel panel was able to be removed.) | – | –
8 | 36.0 mPa · s | 0.0062 | 0.155 | CC(C)CCCC(C)CCCC(C)CCCCC(C)CCCC(C)CCCC(C)C (centres unmarked) [Comparative Example 5, squalane] | – | – | – | Good | –
9 | Not measurable | – | – | CCCCCCCCCCCCCCCCCC(=O)OCCCOC(=O)CCCCCCCCCCCCCCCCC [Comparative Example 4A, PDO distearate] | – | – | – | Moderate | –
10 | – | – | – | PDO-C8/C10=25:75 diester [Example 13C] | Good | Moderate (Some cleansing properties, meaning that only a proportion of 25 to 50% in the line painted with the oil paint pen was able to be removed.) | Moderate (Some cleansing properties, meaning that only a proportion of 25 to 50% in the line painted with the oil paint pen on the coated steel panel was able to be removed.) | – | –
11 | – | – | – | PDO-C8/C10 diester [Example 13] | Good | Excellent (High cleansing properties, meaning that a proportion of 75 to 100% in the line painted with the oil paint pen was able to be removed.) | Excellent (High cleansing properties, meaning that a proportion of 75 to 100% in the line painted with the oil paint pen on the coated steel panel was able to be removed.) | – | –

Row | Compound | Viscosity (mPa · s) (20° C.) [4] | Changed value of friction coefficient [6] | Friction coefficient [6] | Low irritation properties [1, 8] | Cleansing properties [2] | Cleansing properties [3] | Moisturizing properties [5] | other results
12 | PDO diisostearate [Example 12] | 80.0 mPa · s | 0.0045 | 0.140 | – | – | – | Good | Conductivity (CDM method) after 5 hours ([7]; after 5 hours): 17 μS/cm; Conductivity (CDM method) after 10 hours ([7]; after 10 hours): 45 μS/cm; Conductivity (CDM method) after 15 hours ([7]; after 15 hours): 83 μS/cm; Conductivity (CDM method) after 20 hours ([7]; after 20 hours): 127 μS/cm
